The values that follow come from patent US8575158B2, “1-phenyl-substituted heterocyclyl derivatives and their use as prostaglandin D2 receptor modulators” (Actelion Pharmaceuticals Ltd., priority 2010, dated 2013).

The target in this test is T1, hCRTH2 receptor (Homo sapiens, UniProt Q9Y5Y4).
T1 construct: expressed in transfected cells; host or cells: HEK293
T1 sequence (Q9Y5Y4 1-395): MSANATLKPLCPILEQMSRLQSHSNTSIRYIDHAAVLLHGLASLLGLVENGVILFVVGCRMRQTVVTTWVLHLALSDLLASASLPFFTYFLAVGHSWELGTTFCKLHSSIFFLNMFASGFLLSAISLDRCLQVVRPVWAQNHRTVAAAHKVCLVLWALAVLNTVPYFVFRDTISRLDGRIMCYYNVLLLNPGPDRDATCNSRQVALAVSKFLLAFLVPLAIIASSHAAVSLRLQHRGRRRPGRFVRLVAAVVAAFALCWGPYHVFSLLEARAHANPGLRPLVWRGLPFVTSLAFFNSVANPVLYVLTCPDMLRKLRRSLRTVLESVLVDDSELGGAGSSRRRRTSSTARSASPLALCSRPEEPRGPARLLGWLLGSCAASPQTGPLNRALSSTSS
Put plainly: Radioligand displacement assay (3H-PGD2) on hCRTH2 receptor membranes. The format is binding. The note with it: antagonistic activity. Background: In a radioligand displacement assay an active substance lowers the binding of a labelled ligand.

The mark [1] stands for this setting: 3H-PGD2 radioligand displacement, HEK293-hCRTH2 membranes.
[2] abbreviates: radioligand displacement (3H-PGD2), hCRTH2 receptor membranes.

What is called IC50 is the concentration needed to halve the response being measured. A higher IC50 goes with lower potency.

The structures appear in SMILES notation.

Regarding `O=C(O)COc1ccc(Cl)cc1[C@@H]1c2ccc(F)c(F)c2CCN1C(=O)OCc1cccc(F)c1` [Example 350, (S)-1-(2-Carboxymethoxy-5-chloro-phenyl)-5,6-difluoro-3,4-dihydro-1H-isoquinoline-2-carboxylic acid 3-fluoro-benzyl ester], the IC50 under setting [1] stood at 3.38 nM. This counts as single-digit nanomolar.
In turn, `O=C(O)COc1ccc(Cl)cc1[C@@H]1c2ccc(F)c(F)c2CCN1C(=O)OCc1cccc(F)c1F` [Example 351, (S)-1-(2-Carboxymethoxy-5-chloro-phenyl)-5,6-difluoro-3,4-dihydro-1H-isoquinoline-2-carboxylic acid 2,3-difluoro-benzyl ester] yielded a half-maximal inhibitory concentration (IC50) under setting [1] of 3.27 nM.
Take `O=C(O)COc1ccc(Cl)cc1[C@@H]1c2ccc(F)cc2CCN1C(=O)OCc1ccccc1F` [Example 352, (S)-1-(2-Carboxymethoxy-5-chloro-phenyl)-6-fluoro-3,4-dihydro-1H-isoquinoline-2-carboxylic acid 2-fluoro-benzyl ester]: the IC50 under setting [1] is 1.87 nM.
`O=C(O)COc1ccc(Cl)cc1[C@@H]1c2ccc(F)cc2CCN1C(=O)OCc1cccc(F)c1` [Example 353, (S)-1-(2-Carboxymethoxy-5-chloro-phenyl)-6-fluoro-3,4-dihydro-1H-isoquinoline-2-carboxylic acid 3-fluoro-benzyl ester] came in with a concentration for half-maximal inhibition (IC50) under setting [1] of 2.79 nM. The IC50 values of the last two molecules are within 1.5-fold of each other.
Under setting [1], `O=C(O)COc1ccc(Cl)cc1[C@@H]1c2ccc(F)cc2CCN1C(=O)OCc1cccc(F)c1F` [Example 354, (S)-1-(2-Carboxymethoxy-5-chloro-phenyl)-6-fluoro-3,4-dihydro-1H-isoquinoline-2-carboxylic acid 2,3-difluoro-benzyl ester] came in with an IC50 of 7.72 nM.
Consider `O=C(O)COc1ccc(Cl)cc1[C@@H]1c2ccccc2CCN1C(=O)OCc1cccc(F)c1` [Example 355, (S)-1-(2-Carboxymethoxy-5-chloro-phenyl)-3,4-dihydro-1H-isoquinoline-2-carboxylic acid 3-fluoro-benzyl ester], for which the IC50 under setting [1] worked out at 2.01 nM.
Under setting [1], `COc1ccccc1COC(=O)N1CCc2ccccc2[C@H]1c1cc(Cl)ccc1OCC(=O)O` [Example 356, (S)-1-(2-Carboxymethoxy-5-chloro-phenyl)-3,4-dihydro-1H-isoquinoline-2-carboxylic acid 2-methoxy-benzyl ester] had an IC50 of 3.58 nM. Compared with the last molecule, the IC50 is about 1.8-fold higher.
Under setting [1], `O=C(O)COc1ccc(Cl)cc1[C@@H]1c2ccccc2CCN1C(=O)OCc1ccccc1F` [Example 357, (S)-1-(2-Carboxymethoxy-5-chloro-phenyl)-3,4-dihydro-1H-isoquinoline-2-carboxylic acid 2-fluoro-benzyl ester] came in with an IC50 of 1.23 nM.
Under setting [1], `O=C(O)COc1ccc(Cl)cc1[C@@H]1c2cccc(F)c2CCN1C(=O)OCc1cccc(F)c1` [Example 358, (S)-1-(2-Carboxymethoxy-5-chloro-phenyl)-5-fluoro-3,4-dihydro-1H-isoquinoline-2-carboxylic acid 3-fluoro-benzyl ester] came in with a concentration for half-maximal inhibition (IC50) of 2.84 nM.
The same measure, in the same setting: under `O=C(O)COc1ccc(Cl)cc1[C@@H]1c2cccc(F)c2CCN1C(=O)OCc1ccccc1F` [Example 359, (S)-1-(2-Carboxymethoxy-5-chloro-phenyl)-5-fluoro-3,4-dihydro-1H-isoquinoline-2-carboxylic acid 2-fluoro-benzyl ester] stands 1.79 nM; under `O=C(O)COc1ccc(Cl)cc1[C@@H]1c2ccc(F)cc2CCN1C(=O)OCc1ccccc1` [Example 367], 4.89 nM.
Same read-out and setting: in the case of `Cc1nn(CCC(=O)N2CCc3cc(F)ccc3[C@H]2c2cc(Cl)ccc2OCC(=O)O)c2cccc(F)c12` [Example 391] it was 158 nM.
Turning to `Cc1nn(CCC(=O)N2CCc3cc(F)ccc3[C@H]2c2cc(Cl)ccc2OCC(=O)O)c2c(F)cccc12` [Example 392], the IC50 under setting [1] stood at 273 nM.
The molecule `Cc1nn(CCC(=O)N2CCc3cc(F)ccc3[C@H]2c2cc(Cl)ccc2OCC(=O)O)c2cc(F)ccc12` [Example 393] registered an IC50 under setting [1] of 154 nM.
The molecule `Cc1nn(CCC(=O)N2CCc3cc(F)ccc3[C@H]2c2cc(Cl)ccc2OCC(=O)O)c2cc(Cl)ccc12` [Example 394] gave an IC50 under setting [1] of 185 nM.
In turn, `O=C(O)COc1ccc(Cl)cc1[C@@H]1c2ccc(F)cc2CCN1C(=O)CCn1ncc2cc(F)ccc21` [Example 395, (4-Chloro-2-{(S)-6-fluoro-2-[3-(5-fluoro-indazol-1-yl)-propionyl]-1,2,3,4-tetrahydro-isoquinolin-1-yl}-phenoxy)-acetic acid] had a concentration for half-maximal inhibition (IC50) under setting [1] of 28.4 nM.
Under setting [1], `O=C(O)COc1ccc(Cl)cc1[C@@H]1c2ccc(F)cc2CCN1C(=O)CCn1ncc2cc(Cl)ccc21` [Example 396] returned an IC50 of 152 nM.
In turn, `Cc1nn(CCC(=O)N2CCc3cc(F)ccc3[C@H]2c2cc(Cl)ccc2OCC(=O)O)c2ccccc12` [Example 397, (4-Chloro-2-{(S)-6-fluoro-2-[3-(3-methyl-indazol-1-yl)-propionyl]-1,2,3,4-tetrahydro-isoquinolin-1-yl}-phenoxy)-acetic acid] registered an IC50 under setting [1] of 32.1 nM.
Turning to `O=C(O)COc1ccc(Cl)cc1[C@@H]1c2ccc(F)cc2CCN1C(=O)CCn1ncc2ccc(F)cc21` [Example 398], the IC50 under setting [1] came out at 64.7 nM.
The molecule `O=C(O)COc1ccc(Cl)cc1[C@@H]1c2ccc(F)cc2CCN1C(=O)CCn1ncc2c(F)cccc21` [Example 399] came in with an IC50 under setting [1] of 144 nM.
As for `O=C(O)COc1ccc(Cl)cc1[C@@H]1c2ccc(F)cc2CCN1C(=O)CCn1ncc2cccc(Cl)c21` [Example 400], the IC50 under setting [1] came to 678 nM.
Under setting [1], `O=C(O)COc1ccc(Cl)cc1[C@@H]1c2ccc(F)cc2CCN1C(=O)CCn1ncc2ccc(Cl)cc21` [Example 401, (4-Chloro-2-{(S)-2-[3-(6-chloro-indazol-1-yl)-propionyl]-6-fluoro-1,2,3,4-tetrahydro-isoquinolin-1-yl}-phenoxy)-acetic acid] had a half-inhibitory concentration (IC50) of 46.9 nM.
Molecule `O=C(O)COc1ccc(Cl)cc1[C@@H]1c2ccc(F)cc2CCN1C(=O)CCn1ncc2c(Cl)cccc21` [Example 402] showed an IC50 under setting [1] of 170 nM.
`O=C(O)COc1ccc(Cl)cc1[C@@H]1c2ccc(F)cc2CCN1C(=O)CCn1ncc2cccc(F)c21` [Example 403] yielded an IC50 under setting [1] of 79.1 nM.
`CC[C@@H]1C[C@H]1C(=O)N1CCc2ccccc2[C@H]1c1cc(Cl)ccc1OCC(=O)O` [Example 460] gave an IC50 under setting [1] of 67.8 nM.
In the case of `CCO[C@@H]1C[C@H]1C(=O)N1CCc2ccccc2[C@H]1c1cc(Cl)ccc1OCC(=O)O` [Example 461], the IC50 under setting [1] is 185 nM.
With `C[C@@H]1C[C@H]1C(=O)N1CCc2ccccc2[C@H]1c1cc(Cl)ccc1OCC(=O)O` [Example 462], under setting [1], the half-inhibitory concentration (IC50) worked out at 80.9 nM.
With `O=C(O)COc1ccc(Cl)cc1C1c2ccccc2CN1C(=O)C1CC1c1ccccc1` (stereo not drawn) [Example 503, {4-Chloro-2-[2-trans-(2-phenyl-cyclopropanecarbonyl)-2,3-dihydro-1H-isoindol-1-yl]-phenoxy}-acetic acid], the half-inhibitory concentration (IC50) under setting [1] turned out to be 11.2 nM.
The same measure, in the same setting: under `O=C(O)COc1ccc(Cl)cc1C1c2ccccc2CN1C(=O)C1CC1c1cccc(F)c1` (stereo not drawn) [Example 523, (4-Chloro-2-{2-trans-[2-(3-fluoro-phenyl)-cyclopropanecarbonyl]-2,3-dihydro-1H-isoindol-1-yl}-phenoxy)-acetic acid] stands 40.5 nM.
`O=C(O)COc1ccc(Cl)cc1C1c2ccccc2CN1C(=O)C1CC1c1cccc(Cl)c1` (stereo not drawn) [Example 524, (4-Chloro-2-{2-trans-[2-(3-chloro-phenyl)-cyclopropanecarbonyl]-2,3-dihydro-1H-isoindol-1-yl}-phenoxy)-acetic acid]: the half-inhibitory concentration (IC50) under setting [1] turned out to be 81.3 nM. Against the preceding molecule, the IC50 is about 2-fold higher.
Still for that read-out and setting: in the case of `O=C(O)COc1ccc(Cl)cc1C1c2ccccc2CN1C(=O)C1CC1c1ccccc1F` (stereo not drawn) [Example 525, (4-Chloro-2-{2-trans-[2-(2-fluoro-phenyl)-cyclopropanecarbonyl]-2,3-dihydro-1H-isoindol-1-yl}-phenoxy)-acetic acid] it was 13.5 nM; in that of `O=C(O)COc1ccc(Cl)cc1C1c2ccccc2CN1C(=O)CCn1ncc2cc(Cl)ccc21` (centres unmarked) [Example 544], 340 nM.
Under setting [1], `O=C(O)COc1ccc(Cl)cc1C1c2ccccc2CN1C(=O)CCn1ncc2ccc(Cl)cc21` (centres unmarked) [Example 549] returned an IC50 of 180 nM.
`O=C(O)COc1ccc(Cl)cc1C1c2ccccc2CN1C(=O)CCn1ncc2c(Cl)cccc21` (centres unmarked) [Example 550] had an IC50 under setting [1] of 240 nM.
Under setting [1], `Cc1ccccc1[C@@H]1C[C@H]1C(=O)N1CCc2ccccc2[C@H]1c1cc(Cl)ccc1OCC(=O)O` [Example 560, {4-Chloro-2-[(S)-2-((1R,2R)-2-o-tolyl-cyclopropanecarbonyl)-1,2,3,4-tetrahydro-isoquinolin-1-yl]-phenoxy}-acetic acid] displayed an IC50 of 3.27 nM.
In the case of `Cc1ccccc1[C@H]1C[C@@H]1C(=O)N1CCc2ccccc2[C@H]1c1cc(Cl)ccc1OCC(=O)O` [Example 561, {4-Chloro-2-[(S)-2-((1S,2S)-2-o-tolyl-cyclopropanecarbonyl)-1,2,3,4-tetrahydro-isoquinolin-1-yl]-phenoxy}-acetic acid], the IC50 under setting [2] was 274 nM. In other words, the sub-micromolar range.
`O=C(O)COc1ccc(Cl)cc1[C@@H]1c2ccccc2CCN1C(=O)[C@@H]1C[C@H]1c1ccccc1C(F)(F)F` [Example 562, (4-Chloro-2-{(S)-2-[(1R,2R)-2-(2-trifluoromethyl-phenyl)-cyclopropanecarbonyl]-1,2,3,4-tetrahydro-isoquinolin-1-yl}-phenoxy)-acetic acid]: the IC50 under setting [2] was 3.75 nM.
Molecule `O=C(O)COc1ccc(Cl)cc1[C@@H]1c2ccccc2CCN1C(=O)[C@H]1C[C@@H]1c1ccccc1C(F)(F)F` [Example 563, (4-Chloro-2-{(S)-2-[(1S,2S)-2-(2-trifluoromethyl-phenyl)-cyclopropanecarbonyl]-1,2,3,4-tetrahydro-isoquinolin-1-yl}-phenoxy)-acetic acid] showed a half-maximal inhibitory concentration (IC50) under setting [2] of 264 nM.
